Consider six compounds from patent EP0525360B1, “Novel phenylacetamide derivatives and processes for the preparation thereof” (KOREA RESEARCH INSTITUTE OF CHEMICAL TECHNOLOGY, priority 1991, dated 1993).

Molecules are shown by their SMILES.

What all share (type): in vivo
Data set [1] concerns test animals. The experiment in a line: Behavior analysis (side-effect or toxicity scores). The arrangement: key to Sedation / Dyspnoea / Vasodilation / Convulsion / Salivation / Urination: behavior score; higher number = greater side effects. The settings on record: behavior score; for Convulsion / Salivation / Urination: normal value 0; for Dyspnoea / Ptosis / Sedation / Vasodilation: normal value 4. The text has this: In order to monitor a harmful side-effect or toxicity of the compounds having the formula(I), various behavioral changes in the test animals were observed. […] The higher the number is, the greater the side effects are.

In data set [2] the test system is KTC-ICR mice. The data set is described as follows: phenyl-1,4-benzoquinone(PBQ) induced writhing test. The settings on record: Mus musculus. The method, then: The KTC-ICR mice derived from Charles River Breeding Laboratory in the United States and provided by Experimental Animal Laboratory of Korea Research Institute of Chemical Technology were used as test animals. […] They were tested after having been adjusted to the testing environment for a week. Food and water were given freely; and illumination was maintained on a 12-hour cycle.
Experiments were performed in two ways: that is, the acetic acid induced writhing test and the phenyl-1,4-benzoquinone(PBQ) induced writhing test.
Alternatively, solutions for the PBQ induced writhing test were prepared by dissolving one of the products synthesized in Examples 33 to 46 in a mixture of Tween 80, alcohol and distilled water (1:5:94); and administered orally to the 5 ICR mice for each test in a dose of 0.3mℓ per 30g of body weight. 60 minutes later, 0.02% PBQ solution was administered intraperitoneally in a dose of 0.1mℓ per 30g of body weight of the test animals. 5 minutes thereafter, at the temperature of 40°C, the number of writhings occurred during a period of 5 minutes due to the PBQ solution administered was measured. For comparison, only the mixture of Tween 80, alcohol and distilled water was administered orally to the control group; and, after 60 minutes, the PBQ solution was administered intraperitoneally to the control group in the same manner as mentioned above.
The number of writhings suffered by the test group was compared with that of the control group; and the analgesic effect was measured in terms of the percentage of inhibition of writhing(I. W.). I. W. (%) =(A - B)/(A)x 100 [formula] A : the number of writhings suffered by the control group, B : the number of writhings suffered by the test group.
These ED50 values for the test compounds are shown in the last column of Table 1.
A general note: In writhing tests, fewer writhes than in controls are read as antinociception.

Data set [3] deals with mice. The data set is described as follows: Tail-flick test (radiant heat). The settings on record: p. o. The protocol:
Radiant heat was applied using a beam of high-intensity light focused on a tail spot. The response time, defined as the interval between the onset of the stimulus and the tail flick, was measured electronically(to the nearest 0.1 second). The beam intensity was set at a level giving a mean control reaction time of 3.8±0.4 seconds. […] The percentage of inhibition was determined by the following equation: Inhibition(%) =(Reaction time of the treated group - Reaction time of the control group)/(Reaction time of the control group)x 100 [formula]

Where [4] appears, read: oral, 0.02% PBQ i.p. 60 minutes later, writhings during 5 minutes, mice 10 to 15g, Examples 33 to 46.

Regarding `Cc1ccc(CCCNC(=O)Cc2ccc(OCCN)c(N)c2)cc1C` [Example 37, N-{3-(3,4-dimethylphenyl)propyl}-4-(2-aminoethoxy)-3-aminophenylacetamide], in data set [1] (dose 6.7mg/Kg), the Convulsion stood at 0, the Salivation came to 0, the Urination turned out to be 0 and the Dyspnoea came out at 4. Further, in data set [1] (dose 6.7mg/Kg), the Ptosis was determined as 4, the Sedation is given as 4 and the Vasodilation came to 4. Further, in data set [1] (dose 20mg/Kg), the Convulsion was 0, the Salivation is recorded as 0, the Urination is reported as 0 and the Dyspnoea was determined as 4. In data set [1] (dose 20mg/Kg), the Ptosis is recorded as 5, the Sedation is reported as 4 and the Vasodilation came to 4. In data set [1] (dose 60mg/Kg), this compound gave a Convulsion of 0, a Salivation of 0, a Urination of 0 and a Dyspnoea of 4. For the same compound, in data set [1] (dose 60mg/Kg), the Ptosis is listed as 6, the Sedation is given as 6 and the Vasodilation is on record as 4. This compound showed an ED50 in data set [2] (setting [4]) of 22.7 mg/kg.
In data set [1] (dose 6.7mg/Kg), `Cc1cccc(CCCNC(=O)Cc2ccc(OCCN)c(N)c2)c1` [Example 38, N-{3-(3-methylphenyl)propyl}-4-(2-aminoethoxy)-3-aminophenylacetamide] registered a Convulsion of 0, a Salivation of 0, a Urination of 0 and a Dyspnoea of 4. Also, in data set [1] (dose 6.7mg/Kg), the Ptosis stood at 4, the Sedation is recorded as 4 and the Vasodilation is 4. Also, in data set [1] (dose 20mg/Kg), the Convulsion came out at 0, the Salivation stood at 0, the Urination is on record as 0 and the Dyspnoea is 4. In data set [1] (dose 20mg/Kg), this compound had a Ptosis of 5, a Sedation of 4 and a Vasodilation of 4. Further, in data set [1] (dose 60mg/Kg), the Convulsion is 0, the Salivation amounted to 0, the Urination was found to be 0 and the Dyspnoea is given as 7. Also, in data set [1] (dose 60mg/Kg), the Ptosis was 7, the Sedation is on record as 6 and the Vasodilation is on record as 4. The ED50 in data set [2] (setting [4]) was 22.1 mg/kg.
In data set [1] (dose 10mg/Kg), `NCCOc1ccc(CC(=O)NCCCc2ccc(Cl)cc2)cc1N` [Example 39, N-{3-(4-chlorophenyl)propyl}-4-(2-aminoethoxy)-3-aminophenylacetamide] yielded a Convulsion of 0, a Salivation of 0, a Urination of 0 and a Dyspnoea of 4. In data set [1] (dose 10mg/Kg), this compound gave a Ptosis of 4, a Sedation of 4 and a Vasodilation of 4. In data set [1] (dose 25mg/Kg), the Convulsion is given as 0, the Salivation amounted to 0, the Urination is 0 and the Dyspnoea came to 4. Also, in data set [1] (dose 25mg/Kg), the Ptosis is reported as 4, the Sedation was 4 and the Vasodilation is 4. In data set [1] (dose 50mg/Kg), this compound had a Convulsion of 0, a Salivation of 0, a Urination of 0 and a Dyspnoea of 4. In data set [1] (dose 50mg/Kg), this compound returned a Ptosis of 4, a Sedation of 4 and a Vasodilation of 4. In data set [2] (setting [4]), this compound had a median effective dose (ED50) of 77.6 mg/kg.
As for `NCCOc1ccc(CC(=O)NCCCc2ccc(F)cc2)cc1N` [Example 40, N-{3-(4-fluorophenyl)propyl}-4-(2-aminoethoxy)-3-aminophenylacetamide], the “Inhibition(%)” value in data set [3] (dose 100 mg/Kg) is given as 50%. Also, in data set [1] (dose 10mg/Kg), the Convulsion is given as 0, the Salivation was 0, the Urination worked out at 0 and the Dyspnoea is 4. Besides, in data set [1] (dose 10mg/Kg), the Ptosis is recorded as 4, the Sedation is 4 and the Vasodilation stood at 4. In data set [1] (dose 25mg/Kg), this compound yielded a Convulsion of 0, a Salivation of 0, a Urination of 0 and a Dyspnoea of 4. Besides, in data set [1] (dose 25mg/Kg), the Ptosis came to 4, the Sedation turned out to be 4 and the Vasodilation came to 4. Also, in data set [1] (dose 50mg/Kg), the Convulsion came to 0, the Salivation was determined as 0, the Urination stood at 0 and the Dyspnoea is 4. Further, in data set [1] (dose 50mg/Kg), the Ptosis stood at 4, the Sedation is 4 and the Vasodilation is 4. The ED50 in data set [2] (setting [4]) worked out at 37.8 mg/kg.
In data set [1] (dose 25mg/Kg), `NCCOc1ccc(CC(=O)NCCCc2ccc(Cl)c(Cl)c2)cc1N` [Example 41, N-{3-(3,4-dichlorophenyl)propyl}-4-(2-aminoethoxy)-3-aminophenylacetamide] registered a Convulsion of 0, a Salivation of 0, a Urination of 0 and a Dyspnoea of 4. In data set [1] (dose 25mg/Kg), this compound gave a Ptosis of 4, a Sedation of 4 and a Vasodilation of 4. In data set [1] (dose 50mg/Kg), this compound came in with a Convulsion of 0, a Salivation of 0, a Urination of 0 and a Dyspnoea of 4. Further, in data set [1] (dose 50mg/Kg), the Ptosis is 4, the Sedation worked out at 5 and the Vasodilation is 4. In data set [1] (dose 100mg/Kg), the Convulsion is 0, the Salivation came to 0, the Urination stood at 0 and the Dyspnoea was determined as 5. For the same compound, in data set [1] (dose 100mg/Kg), the Ptosis was determined as 5, the Sedation is 6 and the Vasodilation came out at 4. In data set [2] (setting [4]), this compound yielded an ED50 of 7.18 mg/kg.
On to `CCCCCCCC/C=C\CCCCCCCC(=O)NCc1ccc(OCCN)c(OC)c1` [NE-21610, reference compound], for which the “Inhibition(%)” value in data set [3] (dose 200 mg/Kg) is 50%. In data set [1] (dose 10mg/Kg), this compound returned a Convulsion of 0, a Salivation of 0, a Urination of 0 and a Dyspnoea of 4. Moreover, in data set [1] (dose 10mg/Kg), the Ptosis is given as 4, the Sedation turned out to be 4 and the Vasodilation is reported as 4. In data set [1] (dose 25mg/Kg), this compound yielded a Convulsion of 0, a Salivation of 0, a Urination of 0 and a Dyspnoea of 4. In data set [1] (dose 25mg/Kg), this compound yielded a Ptosis of 4, a Sedation of 4 and a Vasodilation of 4. In data set [1] (dose 50mg/Kg), the Convulsion amounted to 0, the Salivation was 0, the Urination was found to be 0 and the Dyspnoea is recorded as 4. In data set [1] (dose 50mg/Kg), the Ptosis was found to be 5, the Sedation is recorded as 5 and the Vasodilation came to 4. In data set [1] (dose 100mg/Kg), this compound registered a Convulsion of 2, a Salivation of 0, a Urination of 0 and a Dyspnoea of 6. In data set [1] (dose 100mg/Kg), the Ptosis is reported as 7, the Sedation is given as 7 and the Vasodilation turned out to be 4. Moreover, the ED50 in data set [2] (po, writhing test, inducer (acetic acid or PBQ) not stated for this reference) was > 300 mg/kg.

What is called ED50 is the dose at which the effect has come halfway, by size or by number of responders.
